In the supplement of paper PMC10883282:

Columns and labels:
Test in all cases: relative viability vs DMSO control (72 h) (fraction); higher = more viable cells
KHOS-240S = system: KHOS-240S
In short: (§1)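 Relative viability was measured with ATPLite and expressed as percent growth, averaged across up to triplicate wells. Sarcoma cell lines had been seeded in 384-well plates to reach 80–90% confluence, dosed after 24 h, and incubated 72 h at 37 °C, 5% CO2. All data were rescaled on a scale where 1 is full and 0 is none.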

RD = system: RD
In short: as §1

SYO-1 = system: SYO-1
In short: as §1

MES-SA = system: MES-SA
In short: as §1

SW1353 = system: SW1353
In short: as §1

SW982 = system: SW982
In short: as §1

VA-ES-BJ = system: VA-ES-BJ
In short: as §1

HT1080 = system: HT1080
In short: as §1

SK-LMS-1 = system: SK-LMS-1
In short: as §1

RD-ES = system: RD-ES
In short: as §1

G401 = system: G401
In short: as §1

SK-ES-1 = system: SK-ES-1
In short: as §1

CCN(CC)CCNC(=O)c1c(C)[nH]c(/C=C2\C(=O)Nc3ccc(F)cc32)c1C [Sunitinib]
Conditions | relative viability
G401, 0.00017 µM | 1.01
G401, 0.00051 µM | 0.984
G401, 0.00152 µM | 0.982
G401, 0.00457 µM | 0.99
G401, 0.01372 µM | 0.999
G401, 0.04115 µM | 0.996
G401, 0.1235 µM | 0.959
G401, 0.3704 µM | 0.98
G401, 1.111 µM | 0.892
G401, 3.333 µM | 0.628
G401, 10 µM | 0.00473
HT1080, 0.00017 µM | 1.13
HT1080, 0.00051 µM | 1.051
HT1080, 0.00152 µM | 1.1
HT1080, 0.00457 µM | 1.06
HT1080, 0.01372 µM | 1.08
HT1080, 0.04115 µM | 1.07
HT1080, 0.1235 µM | 1.11
HT1080, 0.3704 µM | 1.14
HT1080, 1.111 µM | 1.06
HT1080, 3.333 µM | 0.113
HT1080, 10 µM | 0.00267
KHOS-240S, 0.00017 µM | 1.06
KHOS-240S, 0.00051 µM | 1.06
KHOS-240S, 0.00152 µM | 1.05
KHOS-240S, 0.00457 µM | 1.05
KHOS-240S, 0.01372 µM | 1.04
KHOS-240S, 0.04115 µM | 1.03
KHOS-240S, 0.1235 µM | 0.958
KHOS-240S, 0.3704 µM | 0.875
KHOS-240S, 1.111 µM | 0.655
KHOS-240S, 3.333 µM | 0.204
KHOS-240S, 10 µM | 0.0104
MES-SA, 0.00017 µM | 0.911
MES-SA, 0.00051 µM | 0.927
MES-SA, 0.00152 µM | 0.95
MES-SA, 0.00457 µM | 0.917
MES-SA, 0.01372 µM | 0.929
MES-SA, 0.04115 µM | 0.905
MES-SA, 0.1235 µM | 0.917
MES-SA, 0.3704 µM | 0.83
MES-SA, 1.111 µM | 0.578
MES-SA, 3.333 µM | 0.305
MES-SA, 10 µM | -0.00247
RD, 0.00017 µM | 1.11
RD, 0.00051 µM | 1.11
RD, 0.00152 µM | 1.13
RD, 0.00457 µM | 1.13
RD, 0.01372 µM | 1.12
RD, 0.04115 µM | 1.11
RD, 0.1235 µM | 1.14
RD, 0.3704 µM | 1.1
RD, 1.111 µM | 0.958
RD, 3.333 µM | 0.0418
RD, 10 µM | 0.00227
RD-ES, 0.00017 µM | 0.955
RD-ES, 0.00051 µM | 0.952
RD-ES, 0.00152 µM | 0.968
RD-ES, 0.00457 µM | 0.97
RD-ES, 0.01372 µM | 0.964
RD-ES, 0.04115 µM | 0.958
RD-ES, 0.1235 µM | 0.895
RD-ES, 0.3704 µM | 0.752
RD-ES, 1.111 µM | 0.276
RD-ES, 3.333 µM | 0.0097
RD-ES, 10 µM | 0.00923
SK-ES-1, 0.00017 µM | 0.997
SK-ES-1, 0.00051 µM | 0.996
SK-ES-1, 0.00152 µM | 1.08
SK-ES-1, 0.00457 µM | 1.04
SK-ES-1, 0.01372 µM | 1.02
SK-ES-1, 0.04115 µM | 0.97
SK-ES-1, 0.1235 µM | 0.931
SK-ES-1, 0.3704 µM | 0.578
SK-ES-1, 1.111 µM | 0.215
SK-ES-1, 3.333 µM | 0.018
SK-ES-1, 10 µM | 0.0034
SK-LMS-1, 0.00017 µM | 1.11
SK-LMS-1, 0.00051 µM | 1.13
SK-LMS-1, 0.00152 µM | 1.08
SK-LMS-1, 0.00457 µM | 1.07
SK-LMS-1, 0.01372 µM | 1.12
SK-LMS-1, 0.04115 µM | 1.1
SK-LMS-1, 0.1235 µM | 1.09
SK-LMS-1, 0.3704 µM | 1.02
SK-LMS-1, 1.111 µM | 0.884
SK-LMS-1, 3.333 µM | 0.706
SK-LMS-1, 10 µM | 0.0084
SW982, 0.00017 µM | 1.06
SW982, 0.00051 µM | 1.07
SW982, 0.00152 µM | 1.07
SW982, 0.00457 µM | 1.05
SW982, 0.01372 µM | 1.05
SW982, 0.04115 µM | 1.07
SW982, 0.1235 µM | 1.02
SW982, 0.3704 µM | 0.716
SW982, 1.111 µM | 0.413
SW982, 3.333 µM | 0.0113
SW982, 10 µM | 0.00423
SW1353, 0.00017 µM | 0.978
SW1353, 0.00051 µM | 0.994
SW1353, 0.00152 µM | 0.968
SW1353, 0.00457 µM | 0.984
SW1353, 0.01372 µM | 0.951
SW1353, 0.04115 µM | 0.972
SW1353, 0.1235 µM | 0.981
SW1353, 0.3704 µM | 1
SW1353, 1.111 µM | 0.988
SW1353, 3.333 µM | 0.017
SW1353, 10 µM | 0.0071
SYO-1, 0.00017 µM | 0.952
SYO-1, 0.00051 µM | 0.9234
SYO-1, 0.00152 µM | 0.886
SYO-1, 0.00457 µM | 0.813
SYO-1, 0.01372 µM | 0.706
SYO-1, 0.04115 µM | 0.665
SYO-1, 0.1235 µM | 0.601
SYO-1, 0.3704 µM | 0.494
SYO-1, 1.111 µM | 0.406
SYO-1, 3.333 µM | -0.00767
SYO-1, 10 µM | -0.00903
VA-ES-BJ, 0.00017 µM | 1.04
VA-ES-BJ, 0.00051 µM | 1.03
VA-ES-BJ, 0.00152 µM | 1.04
VA-ES-BJ, 0.00457 µM | 1.04
VA-ES-BJ, 0.01372 µM | 1.05
VA-ES-BJ, 0.04115 µM | 1.045
VA-ES-BJ, 0.1235 µM | 1.014
VA-ES-BJ, 0.3704 µM | 0.962
VA-ES-BJ, 1.111 µM | 0.745
VA-ES-BJ, 3.333 µM | 0.597
VA-ES-BJ, 10 µM | -0.00367
